Source: PubChem BioAssay AID652213 (The Scripps Research Institute Molecular Screening Center, 2013)
Calls of active or inactive are those of the source. No rule for the calls is given here.

Biological target: Serine/threonine-protein phosphatase PP1-alpha catalytic subunit (Homo sapiens) (UniProt P62136)
Test: PP1 inhibitors, OMFP dephosphorylation, late-stage follow-up, biochemical, fluorescence, OMFP substrate, set 3 (AID 652213)
Details: purified PP1, OMFP dephosphorylation, at 6.7 µM (top of the series)

Sequence of Serine/threonine-protein phosphatase PP1-alpha catalytic subunit (Homo sapiens) (P62136 whole entry, looked up): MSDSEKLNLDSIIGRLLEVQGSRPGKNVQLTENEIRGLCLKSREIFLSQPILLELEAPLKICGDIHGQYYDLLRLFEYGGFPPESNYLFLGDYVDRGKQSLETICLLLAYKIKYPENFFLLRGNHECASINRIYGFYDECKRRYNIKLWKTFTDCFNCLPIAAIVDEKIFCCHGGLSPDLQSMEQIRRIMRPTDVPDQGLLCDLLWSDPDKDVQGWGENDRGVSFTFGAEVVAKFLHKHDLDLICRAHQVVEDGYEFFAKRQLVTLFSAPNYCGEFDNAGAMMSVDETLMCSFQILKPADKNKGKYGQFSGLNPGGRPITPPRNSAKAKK

Row | Structure (SMILES) | activity
1 | CCOC(=O)c1nn(-c2ccc(C)cc2)c(=O)c2c(N)scc12 | 4.75% (inactive)
2 | N#Cc1c(N2CCCC(O)C2)nc(N)c2c(N)nc3c(c12)CC(=O)N3C12CC3CC(CC(C3)C1)C2 (centres undefined) | 5.14% (inactive)
3 | COc1ccc(C(=O)c2nccc3cc(OC)c(OC)cc23)cc1OC | 5.53% (inactive)
4 | COc1cnc(-c2ccccn2)nc1Oc1cccc(C(F)(F)F)c1 | -4.64% (inactive)
5 | CCOC(=O)c1sc(N2C(=O)C(O)=C(C(=O)c3ccco3)C2c2cccc([N+](=O)[O-])c2)nc1C (centres undefined) | 26.6%
6 | COc1ccc(OCCCC(=O)Nc2nc(-c3ccccn3)cs2)cc1 | 26.8%
7 | Nc1cc2nsnc2cc1Br | -10.1% (inactive)
8 | Cc1ccc(-n2nc(C(=O)O)cc2-c2ccc(Cl)cc2)cc1 | 54.8%
9 | c1ccc(Nc2nc(-c3ccccn3)cs2)cc1 | 62%
10 | CCn1c2ccccc2c2cc(NC(=O)COC(=O)c3ccc(NC(=O)CC#N)cc3)ccc21 | 49%
11 | O=C1CCCC2=C1C1(O)C(=O)c3ccccc3C1(O)O2 (centres undefined) | 3.07% (inactive)
12 | COc1ccc(Sc2nc(-c3ccccn3)ncc2OC)cc1 | 72.4%
13 | COc1cnc(-c2ccccn2)nc1Sc1ccc(F)cc1 | 53.8%
14 | O=C(Nc1nc(-c2ccccn2)cs1)C1CC(=O)N(c2ccc3c(c2)OCCO3)C1 (centres undefined) | 42.3%
15 | Oc1cccc(/C=N/Nc2cc(N3CCCC3)nc(N3CCCC3)n2)c1 | 18.5% (inactive)
16 | COc1cnc(-c2ccccn2)nc1Oc1cccc(Cl)c1 | 46.4%
17 | COc1ccc(NC(=S)Nc2ccc3nsnc3c2)cc1 | -1.36% (inactive)
18 | Oc1ccccc1/C=N/Nc1cc(N2CCCC2)nc(N2CCCC2)n1 | 4.03% (inactive)
19 | O=C(O)C1C2CCC(O2)C1C(=O)NC1CCCCC1 (centres undefined) | 26.2% (inactive)
20 | O=C(O)c1cc(-c2ccc(Cl)cc2)n(-c2cccc(Cl)c2)n1 | 55.6%
21 | CC(C)(CS(=O)(=O)[O-])NC(=O)CC[N+](C)(C)CCO | 49.7%
22 | CCOc1ccc(NC(=S)Nc2ccc3nsnc3c2)cc1 | 2.39% (inactive)

Row | Structure (SMILES) | activity
23 | Nc1nc(-c2ccccn2)nc(N)c1Cc1ccc(Cl)cc1Cl | 67.1%
24 | COc1cnc(-c2ccccn2)nc1Sc1ccccc1 | 64.9%
25 | O=C(O)c1cc(-c2ccc(Cl)c(Cl)c2)n(-c2ccccc2)n1 | 59.9%
26 | COc1cc(Br)c(C(=O)c2nccc3cc(OC)c(OC)cc23)cc1OC | -11.4% (inactive)
27 | O=C(NC1(O)C(=O)c2ccccc2C1=O)c1ccc(C(F)(F)F)cc1 | 8.58% (inactive)
28 | Cc1nnc(NC(=O)C2C3C=CC(O3)C2C(=O)O)s1 (centres undefined) | 2.61% (inactive)
29 | CCOC(=O)c1cnc(-n2nc(C)cc2C)nc1NCCc1ccccc1 | 68.3%
30 | Cc1[nH]n(-c2ccccc2)c(=O)c1C(c1ccc([N+](=O)[O-])cc1)c1c(C)[nH]n(-c2ccccc2)c1=O | -6.69% (inactive)
31 | CCOC(=O)c1cnc(-n2nc(C)cc2C)nc1NC(C)c1ccccc1 (centres undefined) | 69.4%
32 | CCOC(=O)C1=C(C)OC2(O)c3ccccc3C(=O)C12O (centres undefined) | 27.1% (inactive)
33 | CN1CCN(C(c2ccccn2)c2cc(Cl)c3cccnc3c2O)CC1 (centres undefined) | 69.7%
34 | CCOC(=O)c1cnc(-n2cc(C)cn2)nc1NCc1ccc2c(c1)OCO2 | 16.5% (inactive)
35 | CCCCN(CC)c1nc(N)c2c(N)nc(OCC)cc2c1C#N | 4.31% (inactive)
36 | COc1ccc(NC(=O)C2C3CCC(O3)C2C(=O)O)c(OC)c1 (centres undefined) | 35.3%
37 | CCOC(=O)c1cnc(-n2nc(C)cc2C)nc1NCc1ccccc1 | 62.5%
38 | COc1ccc(CN2C(=O)Cc3c2nc(N)c2c(N)nc(N4CCCCC4)c(C#N)c32)cc1 | -0.66% (inactive)
39 | c1ccc(-c2nccc(-c3ccc(-n4cnc5ccccc54)cc3)n2)nc1 | 62.4%
40 | CCCN(CC1CC1)c1nc(N)c2c(N)nc(OC)cc2c1C#N | 0.2% (inactive)
41 | O=C(NC1(O)C(=O)c2ccccc2C1=O)c1ccccc1 | -6.67% (inactive)
42 | COc1cnc(-c2ccccn2)nc1Sc1cccc(Cl)c1 | 64.1%
43 | COc1ccc(Cn2c(N)c(C(=O)NCc3ccco3)c3nc4ccccc4nc32)cc1OC | 3.93% (inactive)
44 | O=S(=O)(Cc1cc(NCc2ccccc2)nc(-c2ccccn2)n1)c1ccccc1 | 50%

Row | Structure (SMILES) | activity
45 | COc1ccc(Cl)cc1C(=O)Nc1cccc(-c2ccc3nncn3n2)c1 | 56.6%
46 | O=C(O)c1cc(-c2ccc(Cl)c(Cl)c2)n(-c2ccc(F)cc2)n1 | 57.7%
47 | CC(=O)C(C(C)=O)C1(O)C(=O)c2ccccc2C1=O | 1.17% (inactive)
48 | Oc1ccc(/C=N/Nc2cc(N3CCOCC3)nc(N3CCOCC3)n2)c(O)c1 | 7.02% (inactive)
49 | COc1cnc(-c2ccccn2)nc1Sc1ccccc1Cl | 68.7%
50 | Cc1cc(C)c(S(=O)(=O)/N=C2\C=C(Sc3ncn[nH]3)C(=O)c3ccccc32)cc1C | 5.84% (inactive)
51 | O=C1Nc2ccccc2N2CCCC12 (centres undefined) | -7.49% (inactive)
52 | O=c1[nH]c(Nc2ccccc2)cc2ccccc12 | 4.07% (inactive)
53 | O=C(NC1(O)C(=O)c2ccccc2C1=O)c1c(Cl)cccc1Cl | -3.06% (inactive)
54 | CCOC(=O)c1sc2nc3c(SCC(=O)O)cc(C(=O)c4cc(F)ccc4O)cn3c(=O)c2c1C | 65.9%
55 | CCCCn1c(NC(=O)c2ccco2)c(C(=O)OCC)c2nc3ccccc3nc21 | -8.57% (inactive)
56 | Clc1ccc(-n2nnnc2-c2cnc(-c3ccccn3)nc2-c2cccs2)cc1 | 66.6%
57 | COc1ccccc1Sc1nc(-c2ccccn2)ncc1OC | 63.1%
58 | COc1cnc(-c2ccccn2)nc1Sc1ccc(C)cc1 | 62.9%
59 | N#Cc1c(-c2ccc(Cl)cc2)cc(-c2cccs2)nc1SCC(=O)O | 45.4%
60 | COc1cnc(-c2ccccn2)nc1Sc1ccc(Cl)cc1 | 54.6%
61 | Cc1ccc(C(=O)NC2(O)C(=O)c3ccccc3C2=O)cc1C | 1.19% (inactive)
62 | Cc1ccc(C(=O)NNc2cc(N3CCCC3)nc(N3CCCC3)n2)cc1 | 4.62% (inactive)
63 | COc1ccc2c(Cl)c(C(=O)N/N=C/c3ccc4c(c3)OCO4)sc2c1 | 20.2% (inactive)
64 | CCOC(=O)c1cnc(-n2nc(C)cc2C)nc1NC1CCCCC1 | 59.7%
